From article doi:10.1101/2024.10.18.619128v2 (biorxiv, 2024)
Like-named read-outs stand apart in the source and are kept apart here.

Legend:
BT20 = experiment: cells; details: Homo sapiens, BT-20, 48 h, read-out: III / CEY1410
BT474 = experiment: cells; details: Homo sapiens, BT-474, 48 h
DU4475 = experiment: cells; details: Homo sapiens, DU-4475, 48 h, read-out: III / CEY1410
HCC1143 = experiment: cells; details: Homo sapiens, HCC1143, 48 h, read-out: III / CEY1410
HCC1419 = experiment: cells; details: Homo sapiens, HCC1419, 48 h
HCC1569 = experiment: cells; details: Homo sapiens, HCC1569, 48 h
HCC1937 = experiment: cells; details: Homo sapiens, HCC1937, 48 h, read-out: III / CEY1410
HCC1954 = experiment: cells; details: Homo sapiens, HCC1954, 48 h
HCC70 = experiment: cells; details: Homo sapiens, HCC70, 48 h, read-out: III / CEY1410
HS578T = experiment: cells; details: Homo sapiens, Hs-578T, 48 h, read-out: III / CEY1410
MCF7 = experiment: cells; details: Homo sapiens, MCF7, 48 h
MDAMB231 = experiment: cells; details: Homo sapiens, MDA-MB-231, 48 h, read-out: III / CEY1410
MDAMB361 = experiment: cells; details: Homo sapiens, MDA-MB-361, 48 h, read-out: III / CEY1410
MDAMB436 = experiment: cells; details: Homo sapiens, MDA-MB-436, 48 h
MDAMB453 = experiment: cells; details: Homo sapiens, MDA-MB-453, 48 h, read-out: III / CEY1410
MDAMB468 = experiment: cells; details: Homo sapiens, MDA-MB-468, 48 h, read-out: III / CEY1410
SKBR3 = experiment: cells; details: Homo sapiens, SK-BR-3, 48 h, read-out: III / CEY1410
T47D = experiment: cells; details: Homo sapiens, T47D, 48 h, read-out: III / CEY1410
ALDH1A3 = ALDH1A3 (Homo sapiens, UniProt P47895); experiment: HPLC retinaldehyde dehydrogenase assay; assay type: biochemical
ALDH1A2 = ALDH1A2 (Homo sapiens, UniProt O94788); experiment: HPLC retinaldehyde dehydrogenase assay; assay type: biochemical
ALDH1A1 = ALDH1A1 (Homo sapiens, UniProt P00352); experiment: HPLC retinaldehyde dehydrogenase assay; assay type: biochemical
MAXFHER 1162 = experiment: cells; details: read-out: DIMATE
MAXFHER 2690 = experiment: cells; details: read-out: DIMATE
MAXFHER 4035 = experiment: cells; details: read-out: DIMATE
MAXFHER BR64 = experiment: cells; details: read-out: DIMATE
MAXFTN 1384 = experiment: cells; details: read-out: DIMATE
MAXFTN 2990 = experiment: cells; details: read-out: DIMATE
MAXFTN 401 = experiment: cells; details: read-out: DIMATE
MAXFTN 449 = experiment: cells; details: read-out: DIMATE
MAXFTN 508 = experiment: cells; details: read-out: DIMATE
MAXFTN BR120 = experiment: cells; details: read-out: DIMATE
ALDH3A1 = ALDH3A1 (Homo sapiens, UniProt P30838); experiment: fluorimetric NADPH assay, global inhibition fit; assay type: biochemical; details: non-competitive; 4-nitrobenzaldehyde substrate, 1 mM NADP+, 37 °C, pH 7.2
ALDH3A1, sequence (P30838 whole entry): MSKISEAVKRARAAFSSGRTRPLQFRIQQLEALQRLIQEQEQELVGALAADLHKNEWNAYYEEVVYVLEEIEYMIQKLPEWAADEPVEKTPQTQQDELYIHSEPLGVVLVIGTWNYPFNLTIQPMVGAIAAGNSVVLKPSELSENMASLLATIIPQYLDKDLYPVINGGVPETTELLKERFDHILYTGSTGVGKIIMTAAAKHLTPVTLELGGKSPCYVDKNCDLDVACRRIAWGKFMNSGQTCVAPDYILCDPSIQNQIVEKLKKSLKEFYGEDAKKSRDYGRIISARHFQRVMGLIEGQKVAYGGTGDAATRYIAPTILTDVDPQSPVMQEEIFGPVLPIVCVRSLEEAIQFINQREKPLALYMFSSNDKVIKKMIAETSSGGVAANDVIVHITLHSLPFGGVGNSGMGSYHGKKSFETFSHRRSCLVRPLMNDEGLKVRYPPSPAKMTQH

ALDH1A2, sequence (O94788 whole entry): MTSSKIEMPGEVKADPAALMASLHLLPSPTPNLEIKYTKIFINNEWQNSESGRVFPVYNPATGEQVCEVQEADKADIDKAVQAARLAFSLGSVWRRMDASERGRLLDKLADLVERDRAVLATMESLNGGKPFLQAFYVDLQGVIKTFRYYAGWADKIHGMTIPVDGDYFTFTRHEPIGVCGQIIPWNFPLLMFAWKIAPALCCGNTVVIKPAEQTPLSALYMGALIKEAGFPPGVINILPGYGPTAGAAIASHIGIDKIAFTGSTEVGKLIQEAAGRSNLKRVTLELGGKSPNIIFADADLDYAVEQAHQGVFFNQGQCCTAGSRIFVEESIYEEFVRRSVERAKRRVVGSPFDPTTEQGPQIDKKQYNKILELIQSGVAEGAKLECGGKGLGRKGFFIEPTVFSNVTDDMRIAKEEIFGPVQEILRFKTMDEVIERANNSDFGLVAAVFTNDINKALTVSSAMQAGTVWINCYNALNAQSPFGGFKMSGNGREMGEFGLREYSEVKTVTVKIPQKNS
ALDH1A1, sequence (P00352 whole entry): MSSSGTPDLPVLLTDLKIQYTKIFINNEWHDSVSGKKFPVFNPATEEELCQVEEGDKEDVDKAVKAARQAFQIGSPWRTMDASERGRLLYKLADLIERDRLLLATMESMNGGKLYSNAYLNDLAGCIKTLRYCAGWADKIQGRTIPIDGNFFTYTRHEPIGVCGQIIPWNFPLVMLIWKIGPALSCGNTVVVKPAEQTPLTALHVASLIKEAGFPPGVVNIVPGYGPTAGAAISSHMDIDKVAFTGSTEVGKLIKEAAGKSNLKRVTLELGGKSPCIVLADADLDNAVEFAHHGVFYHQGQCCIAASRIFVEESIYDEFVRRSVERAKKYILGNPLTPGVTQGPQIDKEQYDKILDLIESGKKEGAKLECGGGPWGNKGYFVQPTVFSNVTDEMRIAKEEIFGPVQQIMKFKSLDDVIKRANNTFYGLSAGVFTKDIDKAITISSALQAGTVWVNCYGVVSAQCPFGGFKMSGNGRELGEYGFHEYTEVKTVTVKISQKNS
ALDH1A3, sequence (P47895 whole entry): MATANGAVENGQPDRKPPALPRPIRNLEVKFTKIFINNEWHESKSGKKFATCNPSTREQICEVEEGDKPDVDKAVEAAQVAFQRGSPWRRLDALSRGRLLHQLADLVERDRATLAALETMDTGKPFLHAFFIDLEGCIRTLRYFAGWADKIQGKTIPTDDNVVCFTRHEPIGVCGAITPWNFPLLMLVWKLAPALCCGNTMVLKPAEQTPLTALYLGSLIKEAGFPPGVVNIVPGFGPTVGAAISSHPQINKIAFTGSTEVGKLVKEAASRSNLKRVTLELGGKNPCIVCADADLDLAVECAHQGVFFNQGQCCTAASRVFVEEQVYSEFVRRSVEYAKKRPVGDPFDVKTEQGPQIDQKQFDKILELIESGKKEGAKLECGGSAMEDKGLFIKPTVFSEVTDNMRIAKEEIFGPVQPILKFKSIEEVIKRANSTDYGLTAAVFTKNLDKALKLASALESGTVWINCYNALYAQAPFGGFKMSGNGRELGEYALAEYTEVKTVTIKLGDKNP

Compound: CN(C)C(C)(C)C#CC(=O)O [CEY1410]
- GI50 (BT20): > 30 µM
- GI50 (BT474; read-out: III / CEY1410): > 30 µM
- GI50 (DU4475): > 30 µM
- GI50 (HCC1143): > 30 µM
- GI50 (HCC1419; read-out: III / CEY1410): > 30 µM
- GI50 (HCC1569; read-out: III / CEY1410): > 30 µM
- GI50 (HCC1937): > 30 µM
- GI50 (HCC1954; read-out: III / CEY1410): > 30 µM
- GI50 (HCC70): > 30 µM
- GI50 (HS578T): > 30 µM
- GI50 (MCF7; read-out: III / CEY1410): > 30 µM
- GI50 (MDAMB231): > 30 µM
- GI50 (MDAMB361): > 30 µM
- GI50 (MDAMB436; read-out: III / CEY1410): > 30 µM
- GI50 (MDAMB453): > 30 µM
- GI50 (MDAMB468): > 30 µM
- GI50 (SKBR3): > 30 µM
- GI50 (T47D): > 30 µM

Compound: CSC(=O)C#CC(C)(C)N(C)C [DIMATE, 4-dimethylamino-4-methyl-pent-2-ynthioic acid-S-methyl ester]
- IC50 (ALDH1A3): 5.7 ± 0.5 µM
- IC50 (ALDH1A2): 6.4 ± 0.9 µM
- IC50 (ALDH1A1): 25 ± 2 µM
- GI50 (BT474; read-out: I / DIMATE): 3 µM
- GI50 (HCC1419; read-out: I / DIMATE): 7.9 µM
- GI50 (HCC1569; read-out: I / DIMATE): 5 µM
- GI50 (HCC1954; read-out: I / DIMATE): > 30 µM
- GI50 (MCF7; read-out: I / DIMATE): 10.4 µM
- GI50 (MDAMB436; read-out: I / DIMATE): 3.9 µM
- GI50 (MAXFHER 1162): 1.42 µM
- GI50 (MAXFHER 2690): 2.65 µM
- GI50 (MAXFHER 4035): 2.55 µM
- GI50 (MAXFHER BR64): 1.05 µM
- GI50 (MAXFTN 1384): 7.32 µM
- GI50 (MAXFTN 2990): 4.29 µM
- GI50 (MAXFTN 401): 0.52 µM
- GI50 (MAXFTN 449): 0.46 µM
- GI50 (MAXFTN 508): 1.11 µM
- GI50 (MAXFTN BR120): 4.06 µM

Compound: ABD0171
- Ki (ALDH3A1): 233 ± 16 µM
